The experiment concerns the target T1, protein tyrosine phosphatase 1B (PTP1B) (Homo sapiens, UniProt P18031).
T1 sequence (P18031 1-435): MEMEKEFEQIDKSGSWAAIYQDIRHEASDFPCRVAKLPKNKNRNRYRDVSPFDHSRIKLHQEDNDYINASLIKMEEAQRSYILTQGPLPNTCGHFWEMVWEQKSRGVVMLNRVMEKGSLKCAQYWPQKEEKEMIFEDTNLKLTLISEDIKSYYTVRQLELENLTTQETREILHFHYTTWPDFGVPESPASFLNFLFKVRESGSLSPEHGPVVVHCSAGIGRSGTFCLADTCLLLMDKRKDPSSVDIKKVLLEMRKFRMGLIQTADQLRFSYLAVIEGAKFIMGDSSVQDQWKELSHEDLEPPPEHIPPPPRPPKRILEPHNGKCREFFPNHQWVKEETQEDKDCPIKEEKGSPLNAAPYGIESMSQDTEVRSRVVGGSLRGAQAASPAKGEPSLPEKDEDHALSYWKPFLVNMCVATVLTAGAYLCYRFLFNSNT
In words: colorimetric pNPP hydrolysis assay with human recombinant PTP1B, dose-response. It is filed as biochemical.

By IC50 is commonly meant the concentration that inhibits the measured activity by half. For ratanhiaphenol III [compound 9], the 50% inhibitory concentration (IC50) stood at 20.2 µM.
